{
  "source": "patent US9469650B2",
  "about": "“Melampomagnolide B derivatives” (BOARD OF TRUSTEES OF THE UNIVERSITY OF ARKANSAS, priority 2013, dated 2016)",
  "key": {"OVCAR-8": {"test_system": "OVCAR-8", "test": "panel of 60 human tumor cell lines, growth inhibition (Ovarian Cancer)", "conditions": "OVCAR-8"}, "MDA-MB-435": {"test_system": "MDA-MB-435", "test": "panel of 60 human tumor cell lines, growth inhibition (Melanoma)", "conditions": "MDA-MB-435"}, "IGROV1": {"test_system": "IGROV1", "test": "panel of 60 human tumor cell lines, growth inhibition (Ovarian Cancer)", "conditions": "IGROVI"}, "NCI/ADR-RES": {"test_system": "NCI/ADR-RES", "test": "panel of 60 human tumor cell lines, growth inhibition (Ovarian Cancer)"}, "SW-620": {"test_system": "SW-620", "test": "panel of 60 human tumor cell lines, growth inhibition (Colon Cancer)", "conditions": "SW-620"}, "BT-549": {"test_system": "BT-549", "test": "panel of 60 human tumor cell lines, growth inhibition (Breast Cancer)", "conditions": "BT-549"}, "K-562": {"test_system": "K-562", "test": "panel of 60 human tumor cell lines, growth inhibition (Leukemia)", "conditions": "K-562"}, "NCI-H522": {"test_system": "NCI-H522", "test": "panel of 60 human tumor cell lines, growth inhibition (Non-Small Cell Lung Cancer)", "conditions": "NCI-H522"}, "COLO 205": {"test_system": "COLO 205", "test": "panel of 60 human tumor cell lines, growth inhibition (Colon Cancer)", "conditions": "COLO 205"}},
  "data": [
    {"smiles": "C=C1C(=O)O[C@H]2[C@H]1CC/C(COC(=O)NC)=C\\CC[C@@]1(C)O[C@@H]21", "note": "[JVM 2-57]", "values": [
      {"measurement": "Percent Growth", "setting": "OVCAR-8; Log10 Concentration −4.0", "value": "−76", "unit": "%"},
      {"measurement": "Percent Growth", "setting": "OVCAR-8; Log10 Concentration −5.0", "value": 30, "unit": "%"},
      {"measurement": "Percent Growth", "setting": "OVCAR-8; Log10 Concentration −6.0", "value": 92, "unit": "%"},
      {"measurement": "Percent Growth", "setting": "OVCAR-8; Log10 Concentration −7.0", "value": 160, "unit": "%"},
      {"measurement": "Percent Growth", "setting": "OVCAR-8; Log10 Concentration −8.0", "value": 100, "unit": "%"},
      {"measurement": "GI50", "setting": "OVCAR-8; NCI five dose", "value": 4.82, "unit": "µM"},
      {"measurement": "TGI", "setting": "OVCAR-8; NCI five dose", "value": "1.93E−5"},
      {"measurement": "Percent Growth", "setting": "MDA-MB-435; Log10 Concentration −4.0", "value": "−81", "unit": "%"},
      {"measurement": "Percent Growth", "setting": "MDA-MB-435; Log10 Concentration −5.0", "value": 32, "unit": "%"},
      {"measurement": "Percent Growth", "setting": "MDA-MB-435; Log10 Concentration −6.0", "value": 91, "unit": "%"},
      {"measurement": "Percent Growth", "setting": "MDA-MB-435; Log10 Concentration −7.0", "value": 93, "unit": "%"},
      {"measurement": "Percent Growth", "setting": "MDA-MB-435; Log10 Concentration −8.0", "value": 99, "unit": "%"},
      {"measurement": "GI50", "setting": "MDA-MB-435; NCI five dose", "value": 5.01, "unit": "µM"},
      {"measurement": "TGI", "setting": "MDA-MB-435; NCI five dose", "value": "1.92E−5"},
      {"measurement": "Percent Growth", "setting": "IGROV1; Log10 Concentration −4.0", "value": "−57", "unit": "%"},
      {"measurement": "Percent Growth", "setting": "IGROV1; Log10 Concentration −5.0", "value": 8, "unit": "%"},
      {"measurement": "Percent Growth", "setting": "IGROV1; Log10 Concentration −6.0", "value": 102, "unit": "%"},
      {"measurement": "Percent Growth", "setting": "IGROV1; Log10 Concentration −7.0", "value": 101, "unit": "%"},
      {"measurement": "Percent Growth", "setting": "IGROV1; Log10 Concentration −8.0", "value": 100, "unit": "%"},
      {"measurement": "GI50", "setting": "IGROV1; NCI five dose", "value": 3.58, "unit": "µM"},
      {"measurement": "TGI", "setting": "IGROV1; NCI five dose", "value": "1.32E−5"},
      {"measurement": "Percent Growth", "setting": "NCI/ADR-RES; Log10 Concentration −4.0", "value": "−27", "unit": "%"},
      {"measurement": "Percent Growth", "setting": "NCI/ADR-RES; Log10 Concentration −5.0", "value": 60, "unit": "%"},
      {"measurement": "Percent Growth", "setting": "NCI/ADR-RES; Log10 Concentration −6.0", "value": 99, "unit": "%"},
      {"measurement": "Percent Growth", "setting": "NCI/ADR-RES; Log10 Concentration −7.0", "value": 101, "unit": "%"},
      {"measurement": "Percent Growth", "setting": "NCI/ADR-RES; Log10 Concentration −8.0", "value": 95, "unit": "%"},
      {"measurement": "GI50", "setting": "NCI/ADR-RES; NCI five dose", "value": 13.1, "unit": "µM"},
      {"measurement": "TGI", "setting": "NCI/ADR-RES; NCI five dose", "value": "4.89E−5"},
      {"measurement": "Percent Growth", "setting": "SW-620; Log10 Concentration −4.0", "value": "−80", "unit": "%"},
      {"measurement": "Percent Growth", "setting": "SW-620; Log10 Concentration −5.0", "value": 6, "unit": "%"},
      {"measurement": "Percent Growth", "setting": "SW-620; Log10 Concentration −6.0", "value": 65, "unit": "%"},
      {"measurement": "Percent Growth", "setting": "SW-620; Log10 Concentration −7.0", "value": 99, "unit": "%"},
      {"measurement": "Percent Growth", "setting": "SW-620; Log10 Concentration −8.0", "value": 98, "unit": "%"},
      {"measurement": "GI50", "setting": "SW-620; NCI five dose", "value": 1.8, "unit": "µM"},
      {"measurement": "TGI", "setting": "SW-620; NCI five dose", "value": "1.16E−5"},
      {"measurement": "Percent Growth", "setting": "BT-549; Log10 Concentration −4.0", "value": "−96", "unit": "%"},
      {"measurement": "Percent Growth", "setting": "BT-549; Log10 Concentration −6.0", "value": 74, "unit": "%"},
      {"measurement": "Percent Growth", "setting": "BT-549; Log10 Concentration −7.0", "value": 86, "unit": "%"},
      {"measurement": "Percent Growth", "setting": "BT-549; Log10 Concentration −8.0", "value": 105, "unit": "%"},
      {"measurement": "GI50", "setting": "BT-549; NCI five dose", "value": 2.13, "unit": "µM"},
      {"measurement": "TGI", "setting": "BT-549; NCI five dose", "value": "9.96E−6"},
      {"measurement": "Percent Growth", "setting": "K-562; Log10 Concentration −4.0", "value": "−16", "unit": "%"},
      {"measurement": "Percent Growth", "setting": "K-562; Log10 Concentration −5.0", "value": 16, "unit": "%"},
      {"measurement": "Percent Growth", "setting": "K-562; Log10 Concentration −6.0", "value": 92, "unit": "%"},
      {"measurement": "Percent Growth", "setting": "K-562; Log10 Concentration −7.0", "value": 92, "unit": "%"},
      {"measurement": "Percent Growth", "setting": "K-562; Log10 Concentration −8.0", "value": 99, "unit": "%"},
      {"measurement": "GI50", "setting": "K-562; NCI five dose", "value": 3.58, "unit": "µM"},
      {"measurement": "TGI", "setting": "K-562; NCI five dose", "value": "3.20E−5"},
      {"measurement": "Percent Growth", "setting": "NCI-H522; Log10 Concentration −4.0", "value": "−74", "unit": "%"},
      {"measurement": "Percent Growth", "setting": "NCI-H522; Log10 Concentration −5.0", "value": "−73", "unit": "%"},
      {"measurement": "Percent Growth", "setting": "NCI-H522; Log10 Concentration −6.0", "value": 68, "unit": "%"},
      {"measurement": "Percent Growth", "setting": "NCI-H522; Log10 Concentration −7.0", "value": 87, "unit": "%"},
      {"measurement": "Percent Growth", "setting": "NCI-H522; Log10 Concentration −8.0", "value": 89, "unit": "%"},
      {"measurement": "GI50", "setting": "NCI-H522; NCI five dose", "value": 1.33, "unit": "µM"},
      {"measurement": "TGI", "setting": "NCI-H522; NCI five dose", "value": "3.02E−6"},
      {"measurement": "Percent Growth", "setting": "COLO 205; Log10 Concentration −4.0", "value": "−94", "unit": "%"},
      {"measurement": "Percent Growth", "setting": "COLO 205; Log10 Concentration −5.0", "value": "−8", "unit": "%"},
      {"measurement": "Percent Growth", "setting": "COLO 205; Log10 Concentration −6.0", "value": 95, "unit": "%"},
      {"measurement": "Percent Growth", "setting": "COLO 205; Log10 Concentration −7.0", "value": 97, "unit": "%"},
      {"measurement": "Percent Growth", "setting": "COLO 205; Log10 Concentration −8.0", "value": 103, "unit": "%"},
      {"measurement": "GI50", "setting": "COLO 205; NCI five dose", "value": 2.73, "unit": "µM"},
      {"measurement": "TGI", "setting": "COLO 205; NCI five dose", "value": "8.33E−6"},
      {"measurement": "CC50", "setting": "COLO 205; read-out: LC50, NCI five dose", "value": 30.8, "unit": "µM"}
    ]}
  ]
}
